Assay results reported in ChEMBL document CHEMBL1201862, “PubChem BioAssay data set” (2004).
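Cells were grown in 96-well plates and exposed to each compound for 48 hours at five concentrations; endpoints were interpolated linearly between bracketing concentrations, or set to the highest concentration if not reached. The concentration for 50% growth inhibition is given as GI50.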 Calls of active or inactive are those of the source. Rule as the data show it: active = GI50 up to about 1.1 µM and inactive = higher.

Columns and labels:
Assay in all cases: growth of human tumour cells (NCI), 48 h
HL-60 = test system: HL-60
SF-268 = test system: SF-268
HCC 2998 = test system: HCC 2998
TK-10 = test system: TK-10
ACHN = test system: ACHN
SK-MEL-5 = test system: SK-MEL-5
OVCAR-8 = test system: OVCAR-8
U-251 = test system: U-251
M14 = test system: M14
MCF7 = test system: MCF7
SF-295 = test system: SF-295
SK-MEL-28 = test system: SK-MEL-28
UACC-257 = test system: UACC-257
IGROV-1 = test system: IGROV-1
OVCAR-5 = test system: OVCAR-5
COLO 205 = test system: COLO 205
SNB-19 = test system: SNB-19
Malme-3M = test system: Malme-3M
HT-29 = test system: HT-29
SNB-75 = test system: SNB-75
HOP-62 = test system: HOP-62
UACC-62 = test system: UACC-62
RPMI-8226 = test system: RPMI-8226
DU-145 = test system: DU-145
Hs-578T = test system: Hs-578T
A498 = test system: A498
HCT-116 = test system: HCT-116
LOX IMVI = test system: LOX IMVI
HCT-15 = test system: HCT-15
RXF 393 = test system: RXF 393
EKVX = test system: EKVX
CCRF-CEM = test system: CCRF-CEM
NCI/ADR-RES = test system: NCI/ADR-RES
SK-MEL-2 = test system: SK-MEL-2
SF-539 = test system: SF-539
NCI-H226 = test system: NCI-H226
SK-OV-3 = test system: SK-OV-3
OVCAR-3 = test system: OVCAR-3
CAKI-1 = test system: CAKI-1
HOP-92 = test system: HOP-92
K562 = test system: K562
MDA-MB-435 = test system: MDA-MB-435
NCI-H522 = test system: NCI-H522
SR = test system: SR
KM12 = test system: KM12
MDA-MB-231 = test system: MDA-MB-231
786-0 = test system: 786-0
SN12C = test system: SN12C
MOLT-4 = test system: MOLT-4
SW-620 = test system: SW-620
A549 = test system: A549
NCI-H23 = test system: NCI-H23
PC-3 = test system: PC-3
T47D = test system: T47D
BT-549 = test system: BT-549
UO-31 = test system: UO-31
NCI-H460 = test system: NCI-H460
OVCAR-4 = test system: OVCAR-4

Which GI50 (HL-60) does the source give for `NC1=Nc2ccccc2Sc2nncn21` here?
The GI50 was > 100 µM (inactive).

And the GI50 (SF-268)?
Its GI50 is > 100 µM (inactive).

And the GI50 (HCC 2998)?
Its GI50 is > 100 µM (inactive).

And the GI50 (TK-10)?
Its GI50 is > 100 µM (inactive).

What about the GI50 (ACHN) of the same compound?
Its GI50 is > 100 µM (inactive).

What about the GI50 (SK-MEL-5) of the same compound?
Its GI50 is > 100 µM (inactive).

What about the GI50 (OVCAR-8) of the same compound?
Its GI50 is > 100 µM (inactive).

What about the GI50 (U-251) of the same compound?
The GI50 was > 100 µM (inactive).

And the GI50 (M14)?
The GI50 was > 100 µM (inactive).

And the GI50 (MCF7)?
The GI50 was > 100 µM (inactive).

What about the GI50 (SF-295) of the same compound?
Its GI50 is > 100 µM (inactive).

And the GI50 (SK-MEL-28)?
The GI50 was > 100 µM (inactive).

And the GI50 (UACC-257)?
Its GI50 is > 100 µM (inactive).

What about the GI50 (IGROV-1) of the same compound?
Its GI50 is > 100 µM (inactive).

What about the GI50 (OVCAR-5) of the same compound?
The GI50 was > 100 µM (inactive).

And the GI50 (COLO 205)?
The GI50 was > 100 µM (inactive).

What about the GI50 (SNB-19) of the same compound?
The GI50 was > 100 µM (inactive).

And the GI50 (Malme-3M)?
Its GI50 is > 100 µM (inactive).

And the GI50 (HT-29)?
The GI50 was > 100 µM (inactive).

And the GI50 (SNB-75)?
Its GI50 is > 100 µM (inactive).

What about the GI50 (HOP-62) of the same compound?
Its GI50 is > 100 µM (inactive).

And the GI50 (UACC-62)?
Its GI50 is > 100 µM (inactive).

And the GI50 (RPMI-8226)?
The GI50 was > 100 µM (inactive).

And the GI50 (DU-145)?
The GI50 was > 100 µM (inactive).

And the GI50 (Hs-578T)?
Its GI50 is > 100 µM (inactive).

And the GI50 (A498)?
The GI50 was > 100 µM (inactive).

What about the GI50 (HCT-116) of the same compound?
Its GI50 is > 100 µM (inactive).

And the GI50 (LOX IMVI)?
Its GI50 is > 100 µM (inactive).

And the GI50 (HCT-15)?
Its GI50 is > 100 µM.

And the GI50 (RXF 393)?
The GI50 was > 100 µM (inactive).

What about the GI50 (EKVX) of the same compound?
The GI50 was > 100 µM (inactive).

And the GI50 (CCRF-CEM)?
The GI50 was > 100 µM (inactive).

What about the GI50 (NCI/ADR-RES) of the same compound?
Its GI50 is > 100 µM (inactive).

What about the GI50 (SK-MEL-2) of the same compound?
Its GI50 is > 100 µM (inactive).

What about the GI50 (SF-539) of the same compound?
The GI50 was > 100 µM (inactive).

And the GI50 (NCI-H226)?
The GI50 was > 100 µM (inactive).

What about the GI50 (SK-OV-3) of the same compound?
Its GI50 is > 100 µM (inactive).

And the GI50 (OVCAR-3)?
The GI50 was > 100 µM (inactive).

And the GI50 (CAKI-1)?
The GI50 was > 100 µM (inactive).

And the GI50 (HOP-92)?
The GI50 was > 100 µM (inactive).

What about the GI50 (K562) of the same compound?
Its GI50 is > 100 µM (inactive).

And the GI50 (MDA-MB-435)?
The GI50 was > 100 µM (inactive).

What about the GI50 (NCI-H522) of the same compound?
Its GI50 is 77.6 µM (inactive).

And the GI50 (SR)?
Its GI50 is > 100 µM (inactive).

What about the GI50 (KM12) of the same compound?
The GI50 was > 100 µM (inactive).

What about the GI50 (MDA-MB-231) of the same compound?
The GI50 was 85.3 µM (inactive).

What about the GI50 (786-0) of the same compound?
Its GI50 is > 100 µM (inactive).

What about the GI50 (SN12C) of the same compound?
Its GI50 is > 100 µM (inactive).

And the GI50 (MOLT-4)?
Its GI50 is > 100 µM (inactive).

And the GI50 (SW-620)?
The GI50 was > 100 µM (inactive).

And the GI50 (A549)?
Its GI50 is > 100 µM (inactive).

What about the GI50 (NCI-H23) of the same compound?
Its GI50 is > 100 µM (inactive).

What about the GI50 (PC-3) of the same compound?
Its GI50 is > 100 µM (inactive).

What about the GI50 (T47D) of the same compound?
The GI50 was > 100 µM (inactive).

What about the GI50 (BT-549) of the same compound?
Its GI50 is > 100 µM (inactive).

What about the GI50 (UO-31) of the same compound?
Its GI50 is > 100 µM (inactive).

And the GI50 (NCI-H460)?
The GI50 was > 100 µM (inactive).

What about the GI50 (OVCAR-4) of the same compound?
The GI50 was > 100 µM (inactive).

For `O=C(CNC(=O)OCc1ccccc1)NCCCCC(NC(=O)OCc1ccccc1)C(=O)NC(CCCCNC(=O)CNC(=O)OCc1ccccc1)C(=O)OCc1ccccc1` (stereo unspecified), which GI50 (HL-60) is on record?
Its GI50 is > 62.5 µM (inactive).

And the GI50 (SF-268)?
Its GI50 is > 62.5 µM (inactive).

And the GI50 (HCC 2998)?
The GI50 was > 62.5 µM (inactive).

And the GI50 (TK-10)?
The GI50 was > 62.5 µM (inactive).

What about the GI50 (ACHN) of the same compound?
Its GI50 is > 62.5 µM (inactive).

What about the GI50 (SK-MEL-5) of the same compound?
The GI50 was > 62.5 µM (inactive).

What about the GI50 (OVCAR-8) of the same compound?
The GI50 was > 62.5 µM (inactive).

What about the GI50 (U-251) of the same compound?
Its GI50 is > 62.5 µM (inactive).

What about the GI50 (M14) of the same compound?
The GI50 was > 62.5 µM (inactive).

What about the GI50 (MCF7) of the same compound?
The GI50 was > 62.5 µM (inactive).

And the GI50 (SK-MEL-28)?
Its GI50 is > 62.5 µM (inactive).

And the GI50 (UACC-257)?
Its GI50 is > 62.5 µM (inactive).

What about the GI50 (IGROV-1) of the same compound?
Its GI50 is > 62.5 µM (inactive).

And the GI50 (OVCAR-5)?
The GI50 was > 62.5 µM (inactive).

What about the GI50 (SNB-19) of the same compound?
The GI50 was > 62.5 µM (inactive).

What about the GI50 (Malme-3M) of the same compound?
The GI50 was > 62.5 µM (inactive).

What about the GI50 (HT-29) of the same compound?
The GI50 was > 62.5 µM (inactive).

What about the GI50 (SNB-75) of the same compound?
Its GI50 is > 62.5 µM (inactive).

And the GI50 (HOP-62)?
The GI50 was > 62.5 µM (inactive).

And the GI50 (UACC-62)?
Its GI50 is > 62.5 µM (inactive).

What about the GI50 (RPMI-8226) of the same compound?
The GI50 was > 62.5 µM (inactive).

What about the GI50 (DU-145) of the same compound?
Its GI50 is > 62.5 µM (inactive).

And the GI50 (A498)?
The GI50 was > 62.5 µM (inactive).

And the GI50 (HCT-116)?
The GI50 was > 62.5 µM (inactive).

And the GI50 (LOX IMVI)?
The GI50 was > 62.5 µM (inactive).

And the GI50 (HCT-15)?
Its GI50 is > 62.5 µM.

And the GI50 (CCRF-CEM)?
The GI50 was > 62.5 µM (inactive).

And the GI50 (SK-MEL-2)?
Its GI50 is > 62.5 µM (inactive).

And the GI50 (NCI-H226)?
The GI50 was > 62.5 µM (inactive).

And the GI50 (OVCAR-3)?
The GI50 was > 62.5 µM (inactive).

And the GI50 (CAKI-1)?
The GI50 was > 62.5 µM (inactive).

What about the GI50 (K562) of the same compound?
The GI50 was > 62.5 µM (inactive).

What about the GI50 (MDA-MB-435) of the same compound?
Its GI50 is > 62.5 µM (inactive).

And the GI50 (NCI-H522)?
The GI50 was 26.9 µM (inactive).

And the GI50 (SR)?
The GI50 was > 62.5 µM (inactive).

And the GI50 (MDA-MB-231)?
The GI50 was > 62.5 µM (inactive).

And the GI50 (786-0)?
The GI50 was > 62.5 µM (inactive).

And the GI50 (SN12C)?
Its GI50 is > 62.5 µM (inactive).

And the GI50 (MOLT-4)?
Its GI50 is > 62.5 µM (inactive).

And the GI50 (SW-620)?
Its GI50 is > 62.5 µM (inactive).

What about the GI50 (A549) of the same compound?
The GI50 was > 62.5 µM (inactive).

And the GI50 (NCI-H23)?
The GI50 was > 62.5 µM (inactive).

What about the GI50 (PC-3) of the same compound?
The GI50 was > 62.5 µM (inactive).

And the GI50 (T47D)?
The GI50 was > 62.5 µM (inactive).

And the GI50 (BT-549)?
Its GI50 is > 62.5 µM (inactive).

What about the GI50 (UO-31) of the same compound?
The GI50 was > 62.5 µM (inactive).

And the GI50 (NCI-H460)?
The GI50 was > 62.5 µM (inactive).

And the GI50 (OVCAR-4)?
Its GI50 is > 62.5 µM (inactive).
